Results reported in publication PMC11969009 (Nature Communications, 2025).
Where “and” joins values, the source holds several entries; their conditions need not be identical. Equal entries are not always repeated. Where two headings read alike, the source gives them in different places.

How the values were obtained:
MERS-CoV PLpro = MERS-CoV PLpro (Middle East respiratory syndrome-related coronavirus, UniProt K9N7C7); type: biochemical; set-up: unit: %
SARS-CoV-2 PLpro [1] = biological target: T1, SARS-CoV-2 PLpro (Severe acute respiratory syndrome coronavirus 2, UniProt P0DTD1); assay: biochemical; type: binding
SARS-CoV-2 PLpro [2] = biological target: T1, SARS-CoV-2 PLpro; assay: biochemical; set-up: inhibition of SARS-CoV-2 PLpro, UbRh dose-response replicate value: unit: %; details: for IC50: IC50 (UbRh) SARS-CoV-2 PLpro
SARS-CoV-2 PLpro [3] = biological target: T1, SARS-CoV-2 PLpro
UCHL3 = UCHL3 (Homo sapiens, UniProt P15374); type: biochemical
Chain of UCHL3 (P15374 whole entry): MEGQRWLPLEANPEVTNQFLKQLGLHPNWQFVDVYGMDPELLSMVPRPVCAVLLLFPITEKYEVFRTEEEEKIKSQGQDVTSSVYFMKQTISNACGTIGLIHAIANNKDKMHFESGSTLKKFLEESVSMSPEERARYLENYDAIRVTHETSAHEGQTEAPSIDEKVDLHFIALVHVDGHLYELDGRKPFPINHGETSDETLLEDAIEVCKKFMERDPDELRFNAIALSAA

OTUD1 = OTUD1 (Homo sapiens, UniProt Q5VV17); type: biochemical
Chain of OTUD1 (Q5VV17 whole entry): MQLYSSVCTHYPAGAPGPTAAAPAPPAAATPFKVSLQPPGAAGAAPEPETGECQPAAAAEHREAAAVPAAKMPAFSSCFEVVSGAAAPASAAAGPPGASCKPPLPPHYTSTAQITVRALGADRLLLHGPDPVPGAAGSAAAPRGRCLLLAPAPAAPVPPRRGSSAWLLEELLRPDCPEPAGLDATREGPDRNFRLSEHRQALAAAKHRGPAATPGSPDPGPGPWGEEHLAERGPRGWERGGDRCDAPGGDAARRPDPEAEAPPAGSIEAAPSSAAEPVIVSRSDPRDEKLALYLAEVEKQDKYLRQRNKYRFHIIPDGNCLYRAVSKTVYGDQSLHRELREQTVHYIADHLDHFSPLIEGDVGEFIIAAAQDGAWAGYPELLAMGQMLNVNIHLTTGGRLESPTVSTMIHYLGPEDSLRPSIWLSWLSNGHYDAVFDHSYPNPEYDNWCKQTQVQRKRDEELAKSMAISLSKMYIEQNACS

SARS-CoV-2 PLpro [4] = biological target: T1, SARS-CoV-2 PLpro; assay: cell-based; type: cell-based
USP10 = USP10 (Homo sapiens, UniProt Q14694); type: biochemical
Chain of USP10 (Q14694 whole entry): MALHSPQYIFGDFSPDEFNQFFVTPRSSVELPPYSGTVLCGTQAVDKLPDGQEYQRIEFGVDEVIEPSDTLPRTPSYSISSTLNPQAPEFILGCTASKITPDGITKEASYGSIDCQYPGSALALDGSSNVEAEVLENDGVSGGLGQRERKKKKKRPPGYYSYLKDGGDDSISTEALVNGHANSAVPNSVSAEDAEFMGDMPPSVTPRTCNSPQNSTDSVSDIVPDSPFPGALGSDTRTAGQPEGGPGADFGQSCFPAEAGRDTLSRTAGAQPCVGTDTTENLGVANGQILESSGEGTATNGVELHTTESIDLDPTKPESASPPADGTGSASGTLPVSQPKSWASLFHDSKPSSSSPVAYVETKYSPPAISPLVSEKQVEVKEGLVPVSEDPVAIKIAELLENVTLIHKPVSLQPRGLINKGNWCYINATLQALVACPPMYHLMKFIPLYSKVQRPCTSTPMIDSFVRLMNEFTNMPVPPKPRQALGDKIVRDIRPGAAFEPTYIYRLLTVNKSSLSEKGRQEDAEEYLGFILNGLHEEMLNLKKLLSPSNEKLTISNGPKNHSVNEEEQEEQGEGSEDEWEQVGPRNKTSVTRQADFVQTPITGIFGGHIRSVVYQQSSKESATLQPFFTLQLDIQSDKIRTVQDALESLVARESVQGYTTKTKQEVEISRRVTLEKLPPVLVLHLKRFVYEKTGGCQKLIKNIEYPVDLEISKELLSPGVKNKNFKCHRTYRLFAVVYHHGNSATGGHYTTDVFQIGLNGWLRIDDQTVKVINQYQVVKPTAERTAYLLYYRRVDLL

[5] = system: panel of human DUBs (ATXN3, Cezanne, OTUD1, USP10, USP21, UCHL3); type: biochemical
Cezanne = Cezanne (Homo sapiens, UniProt Q6GQQ9); type: biochemical
Chain of Cezanne (Q6GQQ9 whole entry): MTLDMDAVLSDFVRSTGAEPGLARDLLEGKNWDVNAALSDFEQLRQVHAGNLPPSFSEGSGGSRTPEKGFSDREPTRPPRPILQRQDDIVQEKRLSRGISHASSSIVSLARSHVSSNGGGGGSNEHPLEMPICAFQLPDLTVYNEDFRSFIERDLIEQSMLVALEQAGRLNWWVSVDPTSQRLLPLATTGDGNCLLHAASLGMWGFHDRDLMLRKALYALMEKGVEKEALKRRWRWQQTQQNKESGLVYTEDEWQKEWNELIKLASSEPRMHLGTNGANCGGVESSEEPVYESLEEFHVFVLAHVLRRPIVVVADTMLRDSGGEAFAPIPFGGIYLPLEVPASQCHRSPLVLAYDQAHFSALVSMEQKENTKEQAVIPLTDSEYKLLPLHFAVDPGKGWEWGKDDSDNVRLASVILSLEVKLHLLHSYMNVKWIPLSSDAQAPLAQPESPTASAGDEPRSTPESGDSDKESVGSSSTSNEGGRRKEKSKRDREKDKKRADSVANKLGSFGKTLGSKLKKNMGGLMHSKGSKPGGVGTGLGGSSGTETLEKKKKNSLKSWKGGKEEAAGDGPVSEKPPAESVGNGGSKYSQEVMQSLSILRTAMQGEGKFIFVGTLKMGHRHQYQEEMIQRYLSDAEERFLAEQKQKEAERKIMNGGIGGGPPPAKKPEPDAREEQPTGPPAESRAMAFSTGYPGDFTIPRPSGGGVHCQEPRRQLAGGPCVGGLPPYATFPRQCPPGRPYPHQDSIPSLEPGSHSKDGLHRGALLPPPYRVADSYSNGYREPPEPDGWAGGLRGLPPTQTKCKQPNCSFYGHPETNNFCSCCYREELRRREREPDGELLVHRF

USP21 = USP21 (Homo sapiens, UniProt Q9UK80); type: biochemical
Chain of USP21 (Q9UK80 whole entry): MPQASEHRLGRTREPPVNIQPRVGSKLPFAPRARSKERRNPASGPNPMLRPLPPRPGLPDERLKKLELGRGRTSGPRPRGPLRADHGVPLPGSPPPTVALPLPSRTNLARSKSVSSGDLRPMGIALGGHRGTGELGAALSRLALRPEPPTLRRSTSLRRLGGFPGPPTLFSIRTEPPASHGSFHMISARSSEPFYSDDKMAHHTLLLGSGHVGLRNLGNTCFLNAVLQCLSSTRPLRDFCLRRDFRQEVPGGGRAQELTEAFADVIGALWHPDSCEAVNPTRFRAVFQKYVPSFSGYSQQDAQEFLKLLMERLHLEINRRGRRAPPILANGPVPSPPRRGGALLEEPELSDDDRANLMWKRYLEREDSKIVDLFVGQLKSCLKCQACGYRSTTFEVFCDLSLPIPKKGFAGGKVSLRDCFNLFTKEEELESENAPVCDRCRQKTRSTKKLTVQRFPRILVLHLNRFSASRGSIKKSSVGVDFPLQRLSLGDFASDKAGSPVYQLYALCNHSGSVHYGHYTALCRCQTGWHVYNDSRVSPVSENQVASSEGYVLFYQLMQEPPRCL

[6] = system: SARS-CoV-2 clinical isolate VIC001; assay: microbe, parasite or virus in culture; type: cell-based; details: Severe acute respiratory syndrome coronavirus 2, Vero, read-out: Antiviral EC50 (plaque assay)
ATXN3 = ATXN3 (Homo sapiens, UniProt P54252); type: biochemical
Chain of ATXN3 (P54252 whole entry): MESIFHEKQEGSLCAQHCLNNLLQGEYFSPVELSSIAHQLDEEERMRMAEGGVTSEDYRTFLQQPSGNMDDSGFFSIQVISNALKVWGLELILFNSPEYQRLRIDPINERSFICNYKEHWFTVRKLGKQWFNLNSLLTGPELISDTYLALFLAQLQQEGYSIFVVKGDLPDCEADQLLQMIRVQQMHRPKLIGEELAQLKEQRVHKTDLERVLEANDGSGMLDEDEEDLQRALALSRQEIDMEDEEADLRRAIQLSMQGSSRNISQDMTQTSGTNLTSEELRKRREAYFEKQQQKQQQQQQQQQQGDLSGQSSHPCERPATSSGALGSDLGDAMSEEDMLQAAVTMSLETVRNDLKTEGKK

SARS-CoV PLpro = SARS-CoV PLpro (Severe acute respiratory syndrome coronavirus, UniProt P0C6X7); assay: biochemical; set-up: inhibition of SARS-CoV PLpro, UbRh dose-response replicate value: unit: %

Chain of MERS-CoV PLpro (K9N7C7 1482-1803 limits assumed): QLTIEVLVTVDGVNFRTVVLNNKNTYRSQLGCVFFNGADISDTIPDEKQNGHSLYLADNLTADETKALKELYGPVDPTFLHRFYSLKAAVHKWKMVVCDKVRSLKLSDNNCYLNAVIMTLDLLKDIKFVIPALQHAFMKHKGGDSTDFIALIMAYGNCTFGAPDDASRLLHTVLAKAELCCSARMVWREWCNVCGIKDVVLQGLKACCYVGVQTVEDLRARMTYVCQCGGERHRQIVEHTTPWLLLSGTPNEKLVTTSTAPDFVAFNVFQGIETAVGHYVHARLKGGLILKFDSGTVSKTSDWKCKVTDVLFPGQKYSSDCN

COc1ccc2cc(C(=O)C3CCCN(C4CCCC4)C3)ccc2c1 (centres unmarked) [WEHI-P1]
inhibition of MERS-CoV PLpro, UbRh dose-response replicate value (MERS-CoV PLpro; Conc 0.00498 µM): -4.614 and -3.364 and 0.3636 and -5.453 and 6.667 and 6.005 and 3.997 and 2.909 | inhibition of MERS-CoV PLpro, UbRh dose-response replicate value (MERS-CoV PLpro; Conc 0.0149 µM): -3.576 and -5.738 and -4.053 and -6.88 and 8.95 and 6.88 and 9.641 and 2.2309 | inhibition of MERS-CoV PLpro, UbRh dose-response replicate value (MERS-CoV PLpro; Conc 0.0448 µM): -7.082 and -11.2097 and -12.434 and -8.665 and 6.324 and 5.9119 and 5.395 and 2.288 | inhibition of MERS-CoV PLpro, UbRh dose-response replicate value (MERS-CoV PLpro; Conc 3.63 µM): -1.223 and -11.7007 and -12.14 and -8.237 and 5.5159 and 6.719 | inhibition of MERS-CoV PLpro, UbRh dose-response replicate value (MERS-CoV PLpro; Conc 98 µM): -14.4158 and -18.412 and -13.4114 and -9.9342 and 9.6505 and 10.1326 and 6.766 and 4.38 | Kd (SARS-CoV-2 PLpro [1]): 8300 nM | inhibition of SARS-CoV-2 PLpro, UbRh dose-response replicate value (SARS-CoV-2 PLpro [2]; Conc 0.00498 µM): -13.6732 and 2.3131 and -7.154 and -11.0795 and 7.963 and 4.4501 and -10.0607 and -6.545 and -6.343 and -0.9072 and -6.992 and -7.263 and -7.665 | inhibition of SARS-CoV-2 PLpro, UbRh dose-response replicate value (SARS-CoV-2 PLpro [2]; Conc 0.0149 µM): -0.6879 and 3.256 and -8.137 and -12.3628 and 2.155 and 5.8571 and -3.891 and -5.469 and -7.734 and -5.926 and -7.3449 | inhibition of SARS-CoV-2 PLpro, UbRh dose-response replicate value (SARS-CoV-2 PLpro [2]; Conc 0.0448 µM): 1.291 and 3.348 and -5.506 and -4.578 and 2.528 and 6.172 and -28.1035 and -26.7808 and -16.0105 and -8.021 and -5.978 and -3.428 and -7.448 | inhibition of SARS-CoV-2 PLpro, UbRh dose-response replicate value (SARS-CoV-2 PLpro [2]; Conc 3.63 µM): 55.1403 and 49.1297 and 72.2398 and 55.1118 and 68.8818 and 68.3038 and 70.3435 and 68.1584 and 58.3924 and 61.1283 and 62.8891 and 58.2582 and 68.987 | inhibition of SARS-CoV-2 PLpro, UbRh dose-response replicate value (SARS-CoV-2 PLpro [2]; Conc 98 µM): 124.948 and 118.973 and 118.719 and 93.4483 and 92.6536 and 95.3254 and 94.6236 and 97.9546 and 83.9689 and 107.904 and 110.814 and 103.242 and 108.864 | IC50 (SARS-CoV-2 PLpro [2]): 2600 nM | IC50 (SARS-CoV-2 PLpro [2]; Supplementary Fig. 2b): 2600 nM | Molar Mass (kDa) (SARS-CoV-2 PLpro [3]): 32.7945 kDa and 33.2145 kDa and 33.2745 kDa | observed molar mass of PLpro (SEC-MALS) (SARS-CoV-2 PLpro [3]): 34.9 kDa | inhibition of UCHL3, UbRh dose-response replicate value (UCHL3): -15.7962 and -10.6437 and -3.089 and -8.07 and -1.79 and -9.314 and -4.512 and -11.432 and -8.325 and -0.3429 and -5.346 and 2.661 and -3.761 and -0.9211 and -0.1651 and 0.1836 and -9.635 and -0.5542 and -7.392 | inhibition of UCHL3, UbRh dose-response replicate value (UCHL3; Conc 0.00498 µM): -2.717 and -5.843 and -1.232 and -3.133 | inhibition of UCHL3, UbRh dose-response replicate value (UCHL3; Conc 0.0149 µM): -3.556 and -7.101 and -2.8889 and -5.9018 | inhibition of UCHL3, UbRh dose-response replicate value (UCHL3; Conc 0.0448 µM): -13.5671 and -9.936 and 2.559 and -5.235 | inhibition of UCHL3, UbRh dose-response replicate value (UCHL3; Conc 3.63 µM): -2.824 and -12.2743 and -7.514 and -7.892 | inhibition of UCHL3, UbRh dose-response replicate value (UCHL3; Conc 98 µM): -24.2494 and -16.3148 and -12.8948 and -13.0616 | inhibition of OTUD1, UbRh dose-response replicate value (OTUD1): -10.6037 and -11.2887 and -9.792 and -7.833 and -12.7647 and -0.9075 and 2.163 and -5.7654 and -7.285 and -0.8912 and -5.258 and -7.97 and -1.274 and -2.017 and -4.922 and 1.155 and -8.198 and 3.097 and -7.799 and -6.802 | inhibition of OTUD1, UbRh dose-response replicate value (OTUD1; Conc 0.00498 µM): -2.098 and -3.857 | inhibition of OTUD1, UbRh dose-response replicate value (OTUD1; Conc 0.0149 µM): 0.5359 and 5.168 and -4.672 and 0.608 | inhibition of OTUD1, UbRh dose-response replicate value (OTUD1; Conc 0.0448 µM): 0.07106 and -1.381 and -0.3944 and -8.021 | inhibition of OTUD1, UbRh dose-response replicate value (OTUD1; Conc 3.63 µM): -3.7862 and -2.718 and -1.038 and -8.072 | inhibition of OTUD1, UbRh dose-response replicate value (OTUD1; Conc 98 µM): -27.4599 and -27.4028 | EC50 (SARS-CoV-2 PLpro [4]): > 20000 nM | inhibition of USP10, UbRh dose-response replicate value (USP10): -17.9764 and -33.546 and -1.777 and -1.005 and -2.268 and -5.196 and 1.437 and 7.331 and 6.946 and -2.385 and 10.5944 and 12.4488 and -3.943 and -14.76 and 8.848 and 13.2594 and -3.1801 | inhibition of USP10, UbRh dose-response replicate value (USP10; Conc 0.00498 µM): 10.1443 and 12.7446 and 2.857 and 1.607 | inhibition of USP10, UbRh dose-response replicate value (USP10; Conc 0.0149 µM): 1.87 and 11.8374 and 1.723 and 2.761 | inhibition of USP10, UbRh dose-response replicate value (USP10; Conc 0.0448 µM): 5.874 and 6.2633 and -3.914 | inhibition of USP10, UbRh dose-response replicate value (USP10; Conc 3.63 µM): -1.745 and -4.256 and -2.239 and 0.7005 | inhibition of USP10, UbRh dose-response replicate value (USP10; Conc 98 µM): -22.6046 and 5.737 and 3.4 | cross-reactivity in a panel of human DUBs [5]: no cross-reactivity | inhibition of Cezanne, UbRh dose-response replicate value (Cezanne): -18.912 and -15.6278 and -2.351 and 1.9841 and -10.3668 and -26.3356 and -4.177 and -7.241 and -8.329 and -15.5113 and -9.927 and -0.3728 and -12.3899 and 0.2487 and -4.422 and -3.858 and -10.5494 and -3.083 and 1.0161 and -4.6404 | inhibition of Cezanne, UbRh dose-response replicate value (Cezanne; Conc 0.00498 µM): -5.218 and -11.645 and -1.408 and -0.02766 | inhibition of Cezanne, UbRh dose-response replicate value (Cezanne; Conc 0.0149 µM): -1.15 and -11.2131 and -3.066 and -2.486 | inhibition of Cezanne, UbRh dose-response replicate value (Cezanne; Conc 0.0448 µM): -8.614 and -15.6484 and -3.285 and 0.7467 | inhibition of Cezanne, UbRh dose-response replicate value (Cezanne; Conc 3.63 µM): -15.9321 and -15.0246 and -5.238 and -9.8 | inhibition of Cezanne, UbRh dose-response replicate value (Cezanne; Conc 98 µM): -30.6124 and -29.2216 and 3.466 and 11.4705 | inhibition of USP21, UbRh dose-response replicate value (USP21): -17.3591 and -12.2032 and -18.6472 and -15.4853 and -14.4522 and -19.2052 and -17.9515 and -18.065 and -8.946 and -2.6161 and -10.7527 and -20.9333 and -7.844 and -9.819 and -13.8068 and -21.9255 and -4.154 and -2.302 and -19.2663 and -19.4961 | inhibition of USP21, UbRh dose-response replicate value (USP21; Conc 0.00498 µM): -6.669 and -13.4551 and -20.5516 and -18.4137 | inhibition of USP21, UbRh dose-response replicate value (USP21; Conc 0.0149 µM): -7.696 and -8.6697 and -11.755 and -9.346 | inhibition of USP21, UbRh dose-response replicate value (USP21; Conc 0.0448 µM): -2.649 and -22.6918 and -12.9296 | inhibition of USP21, UbRh dose-response replicate value (USP21; Conc 3.63 µM): -16.692 and -5.223 and -23.134 and -16.0626 | inhibition of USP21, UbRh dose-response replicate value (USP21; Conc 98 µM): -13.9863 and -21.5031 and -20.8818 and -12.5688 | EC50 [6]: > 2000 nM | inhibition of ATXN3, UbRh dose-response replicate value (ATXN3): -8.641 and -11.1993 and -4.869 and 4.344 and -19.3823 and -18.001 and -0.7368 and -2.308 and -5.209 and -10.7506 and -7.279 and -8.7353 and -8.48 and -12.1184 and -9.5356 and 0.5603 and -15.7867 and -11.4036 and -7.524 | inhibition of ATXN3, UbRh dose-response replicate value (ATXN3; Conc 0.00498 µM): -12.0566 and -16.4021 and -4.426 and -13.5708 | inhibition of ATXN3, UbRh dose-response replicate value (ATXN3; Conc 0.0149 µM): -11.0193 and -9.528 and -12.1815 and -14.805 | inhibition of ATXN3, UbRh dose-response replicate value (ATXN3; Conc 0.0448 µM): -8.047 and -9.745 and -7.569 and -8.486 | inhibition of ATXN3, UbRh dose-response replicate value (ATXN3; Conc 3.63 µM): -16.703 and -12.2662 and -13.9462 and -9.635 | inhibition of ATXN3, UbRh dose-response replicate value (ATXN3; Conc 98 µM): -16.0742 and -15.5502 | inhibition of SARS-CoV PLpro, UbRh dose-response replicate value (SARS-CoV PLpro; Conc 3.63 µM): 43.26 and 41.4233 and 40.1519 and 56.4827 and 56.7648 and 53.2219 | inhibition at 3.63 µM (SARS-CoV PLpro; Conc 3.63 µM, read-out: inhibition of SARS-CoV PLpro, UbRh dose-response replicate value): 43.3% | inhibition of SARS-CoV PLpro, UbRh dose-response replicate value (SARS-CoV PLpro; Conc 98 µM): 89.3568 and 87.1144 and 87.3043 and 96.6611 and 96.2974 and 95.7026 and 96.1294 | inhibition at 98 µM (SARS-CoV PLpro; Conc 98 µM, read-out: inhibition of SARS-CoV PLpro, UbRh dose-response replicate value): 89.2% | inhibition at […] (SARS-CoV PLpro; read-out: inhibition of SARS-CoV PLpro, UbRh dose-response replicate value): 84.6% and 69.7%
